In US5093480A, “Azoxy compounds” (Kowa Company, Ltd., priority 1988, dated 1992):
Converted amounts (≈) assume the structure as drawn.

Tests used:
Candida albicans = experiment: Minimum inhibitory concentration, agar dilution method, Candida albicans; type: cell-based; details: Sabouraud's dextrose medium; for MIC: Candida albicans
Protocol: (§1) The minimum inhibitory concentrations (μg/ml), relative to test fungi, of some of the typical compounds in this invention produced in Examples to be described later were measured, and the results are tabulated below.
(§2) *The minimum inhibitory concentrations were measured by an agar dilution
(§3) method using a Sabouraud's dextrose medium in accordance with a standard
(§4) method of Nippon Kagaku Ryoho Gakkai (Chemical Therapy Academy).

Cystococcus neoformans = experiment: Minimum inhibitory concentration, agar dilution method, Cystococcus neoformans; type: cell-based; details: Sabouraud's dextrose medium
Protocol: as §1, §2, §3, §4

Trichophyton rubrus = experiment: Minimum inhibitory concentration, agar dilution method, Trichophyton rubrus; type: cell-based; details: Sabouraud's dextrose medium; for MIC: Trichophyton
Protocol: as §1, §2, §3, §4

[1] = tested on: Trichophyton mentagrophytes; experiment: Minimum inhibitory concentration, agar dilution method, Trichophyton mentagrophytes; type: cell-based; details: Sabouraud's dextrose medium; for MIC: Trichophyton mentagrophytes
Protocol: as §1, §2, §3, §4

Acute toxicity to mice = details: mouse, in vivo, intravenous administration
Protocol: The compound in this invention is low in toxicity. For example, acute toxicities LD50 to mice of the compounds in Examples 1 and 4 to be described later are both more than 100 mg/kg (intravenous administration).

[2] = Stability in serum (thin layer chromatography and biological verification using Candida albicans); type: in vitro ADME; details: left to stand in serum at 37° C. for 4 hours; TLC and biological verification using Candida albicans

Compound | MIC (Candida albicans) | MIC (Cystococcus neoformans) | MIC (Trichophyton rubrus) | MIC [1] | LD50 (Acute toxicity to mice) | Minimum inhibitory concentration, Candida albicans (Candida albicans) | Minimum inhibitory concentration, Cystococcus neoformans (Cystococcus neoformans) | Minimum inhibitory concentration, Trichophyton rubrus (Trichophyton rubrus) | Minimum inhibitory concentration, Trichophyton mentagrophytes [1] | decomposition in serum [2]
CCCC/C=C/[N+]([O-])=NC(C)C(C)=NNC(=O)Cc1cccc2ccccc12 (stereo not drawn) [Example 52, 2-(alpha-naphthylacetylhydrazono)-2-deoxo-KA-7367A] | 3.1 µg/mL (≈ 8.15 µM) | 12.5 µg/mL (≈ 32.9 µM) | 3.1 µg/mL (≈ 8.15 µM) | 6.25 µg/mL (≈ 16.4 µM) |  |  |  |  |  | 
CCCC/C=C/[N+]([O-])=NC(C)C(C)=NO (stereo not shown) [Example 1, 2-hydroxyimino-2-deoxo-KA-7367A] | 12.5 µg/mL (≈ 58.6 µM) | 25 µg/mL (≈ 117 µM) | 3.1 µg/mL (≈ 14.5 µM) | 12.5 µg/mL (≈ 58.6 µM) | > 100 mg/kg |  |  |  |  | 
CCCC/C=C/[N+]([O-])=NC(C)C(C)=NOC(C)(C)C(=O)O (stereo not shown) [Example 5, 2-(1-carboxy-1-ethylmethoxyimino)-2-deoxo-KA-7367A] | 12.5 µg/mL (≈ 41.8 µM) | 25 µg/mL (≈ 83.5 µM) | 3.1 µg/mL (≈ 10.4 µM) | 12.5 µg/mL (≈ 41.8 µM) |  |  |  |  |  | 
CCCC/C=C/[N+]([O-])=NC(C)C(C)=NNC(N)=O (stereo not shown) [Example 34, 2-semicarbazono-2-deoxo-KA-7367A] | 3.1 µg/mL (≈ 12.1 µM) | 3.1 µg/mL (≈ 12.1 µM) | 1.6 µg/mL (≈ 6.27 µM) | 3.1 µg/mL (≈ 12.1 µM) |  |  |  |  |  | 
2-(2,4-dichlorodiphenylacetylhydrazono)-2-dioxo-KA-7367A [Example 79] |  |  |  |  |  | 1.6 µg/mL | 6.25 µg/mL | 1.6 µg/mL | 3.1 µg/mL | 
CCCC/C=C/[N+]([O-])=NC(C)C(C)=NNC(=O)Cc1cccnc1 (stereo not shown) [Example 48, 2-(3-pyridylacetylhydrazono)-2-deoxo-KA-7367A] | 1.6 µg/mL (≈ 4.83 µM) | 6.25 µg/mL (≈ 18.9 µM) | 1.6 µg/mL (≈ 4.83 µM) | 3.1 µg/mL (≈ 9.35 µM) |  |  |  |  |  | 
CCCC/C=C/[N+]([O-])=NC(C)C(C)=NOC(=O)c1ccc(Cl)cc1 (stereo not shown) [Example 27, 2-(p-chlorobenzoyloxyimino)-2-deoxo-KA-7367A] | 100 µg/mL (≈ 284 µM) | 100 µg/mL (≈ 284 µM) | 6.25 µg/mL (≈ 17.8 µM) | 12.5 µg/mL (≈ 35.5 µM) |  |  |  |  |  | 
CCCC/C=C/[N+]([O-])=NC(C)C(C)=NNC(=O)Cc1ccc(Cl)cc1 (stereo not shown) [Example 74, 2-(p-chlorophenylacetylhydrazono)-2-deoxo-KA-7367A] | 1.6 µg/mL (≈ 4.39 µM) | 6.25 µg/mL (≈ 17.1 µM) | 3.1 µg/mL (≈ 8.5 µM) | 6.25 µg/mL (≈ 17.1 µM) |  |  |  |  |  | 
CCCC/C=C/[N+]([O-])=NC(C)C(C)=NNC(=O)c1cccnc1 (stereo not shown) [Example 71, 2-nicotinoylhydrazono-2-deoxo-KA-7367A] | 6.25 µg/mL (≈ 19.7 µM) | 12.5 µg/mL (≈ 39.4 µM) | 6.25 µg/mL (≈ 19.7 µM) | 6.25 µg/mL (≈ 19.7 µM) |  |  |  |  |  | 
CCCC/C=C/[N+]([O-])=NC(C)C(C)=NNC(=O)C(c1ccc(Cl)cc1)c1ccccc1Cl (stereo not shown) [Example 78, 2-(2,4'-dichlorodiphenylacetylhydrazono)-2-deoxo-KA-7367A] | 0.8 µg/mL (≈ 1.68 µM) | 6.25 µg/mL (≈ 13.1 µM) | 3.1 µg/mL (≈ 6.52 µM) | 3.1 µg/mL (≈ 6.52 µM) |  |  |  |  |  | 
CCCC/C=C/[N+]([O-])=NC(C)C(C)=NNC(=O)c1ccco1 (stereo not shown) [Example 67, 2-(2-furylcarbonylhydrazono)-2-deoxo-KA-7367A] | 1.6 µg/mL (≈ 5.22 µM) | 6.25 µg/mL (≈ 20.4 µM) | 3.1 µg/mL (≈ 10.1 µM) | 3.1 µg/mL (≈ 10.1 µM) |  |  |  |  |  | 
CCCC/C=C/[N+]([O-])=NC(C)C(C)=NOCC(=O)O (stereo not shown) [Example 4, 2-carboxymethoxyimino-2-deoxo-KA-7367A] | 12.5 µg/mL (≈ 46.1 µM) | 25 µg/mL (≈ 92.1 µM) | 3.1 µg/mL (≈ 11.4 µM) | 12.5 µg/mL (≈ 46.1 µM) | > 100 mg/kg |  |  |  |  | 
CCCC/C=C/[N+]([O-])=NC(C)C(C)=NNC(C)=O (stereo not shown) [Example 43, 2-acetylhydrazono-2-deoxo-KA-7367A] | 1.6 µg/mL (≈ 6.29 µM) | 3.1 µg/mL (≈ 12.2 µM) | 3.1 µg/mL (≈ 12.2 µM) | 6.25 µg/mL (≈ 24.6 µM) |  |  |  |  |  | 
CCCC/C=C/[N+]([O-])=NC(C)C(C)=NNC(=O)Cc1c(F)cccc1F (stereo not shown) [Example 61, 2-[(2,6-difluorophenyl)acetylhydrazono]-2-deoxo-KA-7367A] | 0.8 µg/mL (≈ 2.18 µM) | 6.25 µg/mL (≈ 17.1 µM) | 1.6 µg/mL (≈ 4.37 µM) | 3.1 µg/mL (≈ 8.46 µM) |  |  |  |  |  | 
CCCC/C=C/[N+]([O-])=NC(C)C(C)=NOC(=O)c1ccccc1 (stereo not shown) [Example 25, 2-benzoyloxyimino-2-deoxo-KA-7367A] | 50 µg/mL (≈ 158 µM) | 50 µg/mL (≈ 158 µM) | 3.1 µg/mL (≈ 9.77 µM) | 12.5 µg/mL (≈ 39.4 µM) |  |  |  |  |  | 
2-thenoylhydrazono-2-deoxo-KA-7367A [Example 68] |  |  |  |  |  | 3.2 µg/mL | 6.25 µg/mL | 6.25 µg/mL | 6.25 µg/mL | 
CCCC/C=C/[N+]([O-])=NC(C)C(C)=NNC(N)=S (stereo not shown) [Example 35, 2-thiosemicarbazono-2-deoxo-KA-7367A] | 3.1 µg/mL (≈ 11.4 µM) | 6.25 µg/mL (≈ 23 µM) | 3.1 µg/mL (≈ 11.4 µM) | 6.25 µg/mL (≈ 23 µM) |  |  |  |  |  | 
CCCC/C=C/[N+]([O-])=NC(C)C(C)=NNC(=O)Cn1ccnc1 (stereo not shown) [Example 47, 2-(1-imidazolylacetylhydrazono)-2-deoxo-KA-7367A] | 6.25 µg/mL (≈ 19.5 µM) | 50 µg/mL (≈ 156 µM) | 12.5 µg/mL (≈ 39 µM) | 25 µg/mL (≈ 78 µM) |  |  |  |  |  | 
CCCC/C=C/[N+]([O-])=NC(C)C(C)=NNC(=O)c1ccncc1 (stereo not shown) [Example 70, 2-isonicotinoylhydrazono-2-deoxo-KA-7367A] | 25 µg/mL (≈ 78.8 µM) | 50 µg/mL (≈ 158 µM) | 12.5 µg/mL (≈ 39.4 µM) | 25 µg/mL (≈ 78.8 µM) |  |  |  |  |  | 
CCCC/C=C/[N+]([O-])=NC(C)C(C)=NNC(=O)CN1CCN(C(C)=O)CC1 (stereo not shown) [Example 53, 2-(4-acetylpiperazinyl-acetylhydrazono)-2-deoxo-KA-7367A] | 3.1 µg/mL (≈ 8.15 µM) | 12.5 µg/mL (≈ 32.9 µM) | 3.1 µg/mL (≈ 8.15 µM) | 6.25 µg/mL (≈ 16.4 µM) |  |  |  |  |  | 
CCCC/C=C/[N+]([O-])=NC(C)C(C)=NOC(C)=O (stereo not shown) [Example 24, 2-acetoxyimino-2-deoxo-KA-7367A] | 25 µg/mL (≈ 97.9 µM) | 50 µg/mL (≈ 196 µM) | 6.25 µg/mL (≈ 24.5 µM) | 12.5 µg/mL (≈ 49 µM) |  |  |  |  |  | 
CCCC/C=C/[N+]([O-])=NC(C)C(C)=O (stereo not shown) [KA-7367A] |  |  |  |  |  |  |  |  |  | almost decomposed
CCCC/C=C/[N+]([O-])=NC(C)C(C)=NNC(=O)Cc1ccc(Cl)cc1Cl (stereo not shown) [Example 49, 2-(2,4-dichlorophenylacetylhydrzono)-2-deoxo-KA-7367A] | 1.6 µg/mL (≈ 4.01 µM) | 6.25 µg/mL (≈ 15.7 µM) | 1.6 µg/mL (≈ 4.01 µM) | 3.1 µg/mL (≈ 7.76 µM) |  |  |  |  |  | 
CCCC/C=C/[N+]([O-])=NC(C)C(C)=NNC(=O)Cc1c(OC)cccc1OC (stereo not shown) [Example 62, 2-[(2,6-dimethoxyphenyl)acetylhydrazono]-2-deoxo-KA-7367A] | 1.6 µg/mL (≈ 4.1 µM) | 12.5 µg/mL (≈ 32 µM) | 3.1 µg/mL (≈ 7.94 µM) | 6.25 µg/mL (≈ 16 µM) |  |  |  |  |  | 
CCCC/C=C/[N+]([O-])=NC(C)C(C)=NNC(=O)CN1CCN(C(=O)Cc2c(Cl)cccc2Cl)CC1 (stereo not shown) [Example 54, 2-[4-(2,6-dichlorophenylacetyl)-1-piperazinylacetylhydrazino]-2-deoxo-KA-7367A] | 3.1 µg/mL (≈ 5.9 µM) | 12.5 µg/mL (≈ 23.8 µM) | 3.1 µg/mL (≈ 5.9 µM) | 6.25 µg/mL (≈ 11.9 µM) |  |  |  |  |  | 
CCCC/C=C/[N+]([O-])=NC(C)C(C)=NOCCOCC (stereo not shown) [Example 3, 2-(2-ethoxy-ethoxyimino)-2-dioxo-KA-7367A] | 25 µg/mL (≈ 87.6 µM) | 50 µg/mL (≈ 175 µM) | 6.25 µg/mL (≈ 21.9 µM) | 25 µg/mL (≈ 87.6 µM) |  |  |  |  |  | 
